This test concerns RNase activity in a processed tissue. The test is described as follows: Inhibition of RNase activity in processed tissue during IHC staining. Conditions: compared to other commercially available RNase inhibitors. As to the method:
In one embodiment of the invention, the invention provides methods that preserve or maintain RNA quality and content in an IHC sample, such as for LCM, by use of a ribonucleoside vanadyl complex (RVC) as an RNase inhibitor. […] Use of RVCs is preferred in the practice of the invention over other RNase inhibitors and allows for performance of IHC staining of samples for LCM and downstream gene expression analysis.
The immunostaining was performed on frozen, acetone fixed, sections. RVCs (Ribonucleoside Vanadyl Complexes, Sigma catalog #R3380; Berger et al. Biochemistry 1979, 18:51431; Pukas et al., Biochemistry 1982, 21:46023) at 20 mM were added to all the acts of the staining including primary antibody solution, secondary antibody solution, and rinsing solutions (phosphate buffered saline or PBS). The processing was as follows:
IHC staining was performed on frozen, acetone fixed sections. All reagent solutions were prepared with nuclease free PBS containing a RVC RNase inhibitor and kept at +4° C. The slides were removed from −80° C. storage, 30 seconds are allowed for the condensation to disappear prior to fixing. The staining procedure was done at +4° C. by keeping the slides on a cold block through all parts of the procedure: […]

On to Ribonucleoside Vanadyl Complexes [RVCs], for which the “inhibition of RNase activity in a processed tissue” value was “superior inhibition of RNase activity”.

The values above are taken from patent US20040265840A1, “Preservation of RNA quality and content in tissue sections during immunohistochemistry” (priority 2002, published 2004).
